# Values quoted from earlier work in patent US20060280815A1, “Nutritional composition which promotes weight loss, burns calories, increases thermogenesis, supports energy metabolism and/or suppresses appetite” (priority 2004, published 2006).
# Details: people with type 2 diabetes; acute abstention from caffeine
compound,measurement,value
Cn1c(=O)c2c(ncn2C)n(C)c1=O [caffeine],reduction of postprandial glucose levels,21%
